{
  "source": "paper PMC12654037",
  "about": "“Norditerpene Natural Products from Subterranean Fungi with Anti-Parasitic Activity” (Microorganisms, 2025)",
  "key": {"[1]": {"test_system": "G. lamblia WBC6 and CBG99 trophozoites", "experiment": "Giardia lamblia trophozoite growth inhibition assay", "type": "cell-based", "method": "Compound inhibition assay against Giardia lamblia WBC6 and CBG99 trophozoites: Biological replicates of growth inhibition assays were performed using wild-type G. lamblia WBC6 and G. lamblia CBG99 trophozoites at 37 °C under reduced oxygen conditions in a sealed 0.5 mL airtight sterile tube (USA Scientific, Ocala, FL, USA), following the susceptibility assay described below. G. lamblia trophozoites were grown in TYI-S-33 medium supplemented with 10% bovine serum and 0.05 mg/mL bovine bile, as previously described. A 3-fold serial concentration of pure compounds starting at 29 µM was screened against 75,000 cells/mL of parasites in modified TYI-S-33 medium with a final dimethyl sulfoxide (DMSO) concentration of 0.14%. Metronidazole was run in parallel at a final highest concentration of 66.7 µM and 3-fold subsequent serial dilutions. The untreated negative control contained 0.14% of DMSO. Sealable test tubes filled to its maximum volume of 700 µL were used to perform this assay. The test tubes were incubated at 37 °C for 72 h. After incubation, the tubes were chilled on ice, and the reaction was transferred to 96-well plates. In the plate, 50 µL of an ATP binding luminescence marker, CellTiter-Glo (Promega, Madison, WI, USA) or 10 µL of 2.5 mg/mL d-luciferin (GoldBio, St Louis, MO, USA) was added to each well and allowed to develop at room temperature for 10 min [31, 36]. The assay was read and analyzed using an EnVision Plate Reader (Perkin Elmer, Waltham, MA, USA). Response curves and EC50 values (the concentration at which 50% of G. lamblia trophozoite growth was inhibited) were calculated using GraphPad Prism (GraphPad, LaJolla, CA, USA)."}, "P. falciparum 3D7": {"test_system": "P. falciparum 3D7", "experiment": "Plasmodium falciparum growth inhibition assay (SYBR Green I), 3D7", "conditions": "3D7, 72 h, read-out: EC50 3D7(M)", "procedure": "Plasmodium falciparum growth inhibition assay: Antiplasmodial EC50 results were determined using a fluorescence-based SYBR Green I assay performed using asynchronous cultures [30, 35]. […] Plates were subsequently frozen at −80 °C to facilitate lysis. […] Relative fluorescence units (RFUs) were normalized based on chloroquine-treated and no treatment controls. Serial dilutions of compounds were prepared in RPMI with final assay conditions of ≤0.2% DMSO. Each assay was conducted in triplicate with three biological replicates."}, "in vitro": {"experiment": "in vitro", "type": "in vitro ADME", "conditions": "plasma", "method": "Plasma stability assay. The plasma stability assay was performed in duplicate by incubating each selected compound (1 µmol/L final concentration) in normal mouse (CD-1) or human plasma (Innovative Research, Novi, MI, USA) at 37 °C."}, "HuF fibroblast cell line": {"test_system": "HuF fibroblast cell line", "conditions": "cited from earlier work"}, "[2]": {"test_system": "C. parvum asexual and sexual stages", "experiment": "C. parvum asexual/sexual stage assay (4 h treatment windows)", "type": "cell-based, Cryptosporidium parvum", "method": "To determine -static versus -cidal activity, the infection assay was conducted as described, but infected cells were treated with compounds for 30 min up to 24 h. The compounds were removed after the designated times, and infection was quantified at 72 h post-infection. To determine the activity of the compounds against asexual and sexual stages of the parasite, compounds were added for 4 h windows at times corresponding to asexual or sexual development. Parasite proliferation was then determined at 72 h post-infection. For all assays, each sample was run in triplicate, and three biological replicates were performed."}, "HCT-8 cytotoxicity assay": {"experiment": "HCT-8 cytotoxicity assay", "type": "cell-based", "conditions": "human; sub-confluent (~40% confluency); read-out: EC50 cytotoxicity against sub-confluent HCT-8 cells", "method": "(§1) HCT-8 and HFF cytotoxicity assays: Cytotoxicity of the compounds was determined against both confluent (the conditions of the infection assays) and growing HCT-8 and HFF host cells, as previously described. Cells were seeded into white-sided, clear-bottom 96-well plates and grown to either 40% or 100% confluency. Compounds were added to cells at various concentrations up to 100 µM in a final DMSO concentration of 0.5%. DMSO was run in parallel as a vehicle control. After 48 h, the viability of the cells was determined by either quantification of cellular ATP (Cell-Titer Glo cell viability assay; Promega, Madison WI, USA) or by MTT assay. Viability was determined 24 h after compound addition to HFF cells or 48 h after compound addition to HCT-8 cells or HepG2 cells. The percent cell growth was then calculated with the following formula: % Cell Growth = [RLUcompound/RLUDMSO] × 100. Samples were run in triplicate with two to three biological replicates."}, "HCT-8 cells": {"test_system": "HCT-8 cells", "experiment": "HCT-8 cytotoxicity assay", "type": "cell-based", "method": "as §1"}, "[3]": {"test_system": "T. gondii intracellular stages", "experiment": "T. gondii immunofluorescence assay", "type": "cell-based, Toxoplasma gondii", "conditions": "7.5 µM, 24 h", "method": "For T. gondii IFAs, confluent HFF cells in 4-well chamber cell culture glass slides were infected with either 5 × 10^4 or 1 × 10^5 parasites/mL. At 6 hpi, 7.5 µM oidiolactone A or DMSO control was diluted in culture medium and added to the slides for 24 h. The slides were then fixed with 4% paraformaldehyde and permeabilized with 0.25% Triton-X. The slides were blocked with 3% goat serum in 0.25% Triton-X. The parasites were visualized with anti-T. gondii SAG1 and Alexa Fluor 594 goat anti-rabbit antibody. The slides were mounted, and images were acquired as described above and processed with NIS Elements GA3 (general analysis 3)."}, "HepG2 human hepatocytes": {"test_system": "HepG2 human hepatocytes", "experiment": "HepG2 cytotoxicity assay (MTS)", "type": "cell-based", "conditions": "48 h, mean +/- SD", "method": "HepG2 cytotoxicity assay: Mammalian cell cytotoxicity was assessed in HepG2 human hepatocytes using an MTS 3-(4,5-dimethylthiazol-2-yl)-5-(3-carboxymethoxyphenyl)-2-(4-sulfophenyl)-2H-tetrazolium)-based cytotoxicity assay. For cytotoxicity testing, ∼2250 cells were seeded into each well of a 384-well microtiter plate and incubated for 24 h. Serial dilutions of the compounds were added in triplicate starting at 25 μM. Cells were further incubated for an additional 48 h at 37 °C in an atmosphere containing 5% CO2. Zero-growth control wells were incubated with 5% Triton X-100 for 5 min prior to MTS addition. Following the addition of MTS to all wells, the plates were incubated for an additional 4 h under the same environmental conditions before taking absorbance measurements. Absorbance values were recorded at 490 nm using a Synergy Neo2 multimode reader (BioTek), and values were normalized based on Triton X-100-lysed and no treatment controls. Samples were run in triplicate in each assay, and the experiments were repeated three times."}},
  "note": "Where two headings read alike, the source gives them in different places.",
  "data": [
    {"smiles": "CO[C@H]1OC(=O)C=C2[C@@]13O[C@@H]3[C@H]1OC(=O)[C@@]3(C)CCC[C@@]2(C)[C@@H]13", "note": "[compound 1, oidiolactone A]", "values": [
      {"measurement": "activity against G. lamblia (no activity up to)", "setting": "[1]; 72 h", "value": "> 29", "unit": "µM"},
      {"measurement": "EC50", "setting": "[1]; Giardia duodenalis, read-out: EC50 G. lamblia", "value": "> 30", "unit": "µM"},
      {"measurement": "EC50", "setting": "P. falciparum 3D7", "value": "3.33e-06 ± 6.4e-07", "unit": "M"},
      {"measurement": "half-life at 1 µmol/L", "setting": "in vitro; CD-1, mouse, 1 µmol/L, 37 °C, mean ± SD, read-out: Mouse Plasma Stability t½", "value": "1.76 ± 0.0283", "unit": "h"},
      {"measurement": "half-life at 1 µmol/L", "setting": "in vitro; CD-1, mouse, discussion, read-out: half-life in mouse blood plasma", "value": "< 2", "unit": "h"},
      {"measurement": "half-life at 1 µmol/L", "setting": "in vitro; human, 37 °C, mean ± SD, read-out: Human Plasma Stability t½", "value": "0.2917 ± 0.00167", "unit": "h"},
      {"measurement": "cytotoxicity against human fibroblast", "setting": "HuF fibroblast cell line", "value": "no cytotoxicity observed"},
      {"measurement": "TC50 HuF (sub-confluent)", "setting": "HuF fibroblast cell line; sub-confluent, ref Rusman et al. 2020 [25]", "value": "> 30", "unit": "µM"},
      {"measurement": "activity against gamete stages", "setting": "[2]; 7.5 μM, 4 h intervals", "value": "no activity"},
      {"measurement": "inhibition at 7.5 µM", "setting": "[2]; Cryptosporidium parvum, 4 h intervals post-infection, read 72 h, read-out: inhibition of parasites in asexual stage and transition to sexual stages", "value": "20 to 75", "unit": "%"},
      {"measurement": "EC50 at 48 h", "setting": "HCT-8 cytotoxicity assay", "value": 29.7, "unit": "µM"},
      {"measurement": "TC50 HCT-8 (confluent)", "setting": "HCT-8 cells; confluent", "value": "> 30", "unit": "µM"},
      {"measurement": "toxicity to host cells (no toxicity up to)", "setting": "HCT-8 cells; confluent HCT-8, conditions of the infection assay, 48 h, cellular ATP", "value": "> 100", "unit": "µM"},
      {"measurement": "TC50 HCT-8 (sub-confluent)", "setting": "HCT-8 cells; sub-confluent", "value": "29.7 ± 1.8", "unit": "µM"},
      {"measurement": "abundance of treated T. gondii parasites by IFA", "setting": "[3]", "value": "much lower abundances"},
      {"measurement": "TC50 HepG2", "setting": "HepG2 human hepatocytes", "value": "> 25", "unit": "µM"}
    ]}
  ]
}
